Key:
Type in all cases: cell-based
human tumor H5337 COLON = test: Human Tumor Stem Cell Assay, colony growth after one hour exposure; conditions: 1 h
Excerpt: (§1) The in vitro Human Tumor Stem Cell Assay procedure described as follows has several advantages for testing the effectiveness of chemotherapy drugs such as the 3-(heteroarylalkylene)-2,4(3H,5H)-furandiones. The first advantage is that fresh tumor cells from a variety of tumor types were used rather than a small number of cell lines which have undergone severe selection pressures as they are passed in vitro. The second advantage is that only the anchorage-independent tumor cells will form colonies in soft agar so that any non-malignant cells present in the sample will not form colonies. Perhaps the most important advantage, however, is the emphasis on cells which have the ability to form colonies. These cells, which are generally called stem cells, usually comprise only a small percentage of all tumor cells. They are thought to be the most important cells for growth and distant spread of a tumor. In particular, these cells have the potential to leave the primary tumor and form new tumors at distant sites (called metastases). It is the effectiveness against these very important stem cells that the Human Tumor Stem Cell Assay measures.
(§2) One of the 3-(heteroarylalkylene)-2,4(3H,5H)-furandione compounds, 3-[(5-methyl-2-thienyl) methylene]-2,4(3H,5H)-furandione was evaluated against a series of 10 human tumors in the in vitro Human Tumor Cell Assay, along with conventional and standard chemotherapy agents.
(§3) In the procedure, a single cell suspension was prepared from tumors excised from patients during therapeutic or diagnostic surgical procedures. The human tumor cells were exposed to known anticancer drugs or to [(5-methyl-2-thienyl)methylene]-2,4 (3H, 5H)-furandione at a low (0.2 mcg/ml) or a high (1.0 mcg/ml) concentration for one hour. […] The suspension was washed with tissue culture medium to remove the drug.
(§4) The suspension was then cultured in a double soft agar suspension. Control cells which had been treated identically, except for exposure to the drugs, were also cultured. After one to two weeks, both the tumor cells and the control cells formed colonies in the soft agar which were enumerated under a microscope. The number of colonies grown from the drug-treated cells was compared to the number of colonies grown from the control cells, and the percentage growth after exposure to the drug was calculated.
(§5) The results are illustrated in Table 1, wherein the various numbers indicate the percentage of growth. For example, a small number like 6 means that the number of colonies is only 6% of the number without addition of the compound. On the other hand, a large number like 120 means that the number of colonies is 20% greater with the compound than without.
(§6) Of the nine tumors for which the higher concentration (1.0 mcg/ml) of the furandione was used, five gave inhibition of colony growth corresponding to borderline sensitive (30-50% growth) and four gave inhibition corresponding to sensitivity (0-30% growth). Clinical drugs are normally tested at 10% of their peak plasma concentration. For the standard chemotherapy drugs shown in Table 1, the low concentration (LO) corresponds to this 10% level, and the high concentration (HI) is at 50% of the peak plasma concentration. Of the same nine tumors, only two would have been rated as sensitive or borderline sensitive to any of the other clinical drugs tested.

[1] = tested on: human tumor H5325 SARCOMA; test: as above; conditions: 1 h
Excerpt: as §1, §2, §3, §4, §5, §6

human tumor H5331 OVARY = test: as above; conditions: 1 h
Excerpt: as §1, §2, §3, §4, §5, §6

[2] = tested on: human tumor H5322 STOMACH; test: as above; conditions: 1 h
Excerpt: as §1, §2, §3, §4, §5, §6

human tumor H5349 BREAST = test: as above; conditions: 1 h
Excerpt: as §1, §2, §3, §4, §5, §6

human tumor H5319 BREAST = test: as above; conditions: HI: furandione 1.0 mcg/ml; standard drugs 50% of peak plasma concentration; 1 h
Excerpt: as §1, §2, §3, §4, §5, §6

[3] = tested on: KS62 strain stem-cell human leukemia cells; test: Inhibition of human leukemia cell growth in vitro, as done in Example 3; conditions: for inhibition at 1 µg/mL / inhibition at 5 µg/mL / inhibition at 10 µg/mL: Homo sapiens
Description: A conventionally available cell line (K562) derived from human chronic granulocytic leukemia was employed in an in vitro procedure. The leukemia cell line was cultured in a suspension of RPMI 1640 plus 10% fetal calf serum. All initial cell concentrations for the cultures were 0.65 times 10^5 cells/ml. Four separate suspension cultures were employed with the first suspension culture having no additions. The second suspension culture included 100 microliters of the solvent DMSO per 10 ml of culture (control). The third culture contained 1 ug/ml of 3[[5-methyl-2 thienyl]methylene]-2, 4 (3H, 5H) furandione and the fourth culture contained 1 ug/ml of 3[[3-methyl-2-thienyl]methylene]-2, 4 (3H, 5H) furandione. The cell concentration of each of the four cultures was determined. After three days and again after five days.
In this example, aliquots of 1.0, 5.0 and 10.0 mcg/ml of each of the family compounds was prepared and assayed against KS62 strain stem-cell human leukemia cells in an in vitro procedure as done in Example 3 above.

human tumor H5330 THYMUS = test: Human Tumor Stem Cell Assay, colony growth after one hour exposure; conditions: 1 h
Excerpt: as §1, §2, §3, §4, §5, §6

human tumor H5318 OVARY = test: as above; conditions: HI: furandione 1.0 mcg/ml; standard drugs 50% of peak plasma concentration; 1 h
Excerpt: as §1, §2, §3, §4, §5, §6

[4] = LO: furandione 0.2 mcg/ml, standard drugs 10% of peak plasma concentration
[5] = HI: furandione 1.0 mcg/ml, standard drugs 50% of peak plasma concentration

| Compound | inhibition at 1 µg/mL ([3]; 1.0 mcg/ml) | inhibition at 5 µg/mL ([3]; 5.0 mcg/ml) | inhibition at 10 µg/mL ([3]; 10.0 mcg/ml) | other results |
| --- | --- | --- | --- | --- |
| O=c1[nH]cc(F)c(=O)[nH]1 [Compound 5FU, 5FLUORACIL] | – | – | – | percentage of growth (colonies vs control) (human tumor H5337 COLON; [4]): 62%; percentage of growth (colonies vs control) [1, 5]: 83%; percentage of growth (colonies vs control) (human tumor H5331 OVARY; [5]): 51%; percentage of growth (colonies vs control) (human tumor H5331 OVARY; [4]): 94%; percentage of growth (colonies vs control) [2, 5]: 79%; percentage of growth (colonies vs control) (human tumor H5349 BREAST; [5]): 117%; percentage of growth (colonies vs control) (human tumor H5319 BREAST): 111% |
| CCOC(=O)c1ccc(C=C2C(=O)COC2=O)s1 [Compound 45, 3-[(5-ethoxycarbonyl-2-thienyl)-methylene]-2,4(3H,5H) -furandione] | 0% | 0% | 100% | – |
| O=C1COC(=O)C1=Cc1ccc(I)s1 [Compound 48, 3-[(5-iodo-2-thienyl)-methylene]-2.4(3H,5H)-furandione] | 0% | 0% | 98% | – |
| O=C1COC(=O)C1=Cc1ccc(Br)s1 [Compound 49] | 0% | 0% | 98% | – |
| O=C1COC(=O)C1=Cc1ccc(C(=O)O)s1 [Compound 50, 3-[(5-carboxy-2-thienyl)-methylene]-2,4(3H,5H)-furandione] | 0% | 0% | 0% | – |
| Cc1ccsc1C=C1C(=O)COC1=O [Compound 51, 3-[(3-methyl-2-thienyl)methylene]-2.4(3H.5H)-furandione] | 37% | 100% | 100% | – |
| COc1ccc(C=C2C(=O)COC2=O)c(OC)c1 [Compound 52, 3-[(2,4-dimethoxy-1-phenyl)methylene]-2,4(3H,5H)-furandione] | 8% | 38% | 95% | – |
| Cc1ccc(C=CC=C2C(=O)COC2=O)s1 [Compound 53, 3-[(5-methyl-2-thienyl)propylenediene)-2,4(3H,5H)-furandione] | 0% | 71% | 99% | – |
| O=C1COC(=O)C1=CC=Cc1ccc(Br)s1 [Compound 54] | 27% | 99% | 100% | – |
| O=C1COC(=O)C1=Cc1ccc(Cl)c(Cl)c1 [Compound 55, 3-[(3,4-dichloro-1-phenyl)methylene]-2,4(3H,5H) -furandione] | – | – | – | % Inhibition ([3]; 1.0 mcg/ml): 0%; % Inhibition ([3]; 5.0 mcg/ml): 0%; % Inhibition ([3]; 10.0 mcg/ml): 0% |
| O=C1COC(=O)C1=Cc1ccc(N2CCCCC2)s1 [Compound 56] | – | – | – | % Inhibition ([3]; 1.0 mcg/ml): 0%; % Inhibition ([3]; 5.0 mcg/ml): 0%; % Inhibition ([3]; 10.0 mcg/ml): 0% |
| CN(C)c1ccc(C=C2C(=O)COC2=O)cc1 [Compound 57] | 17% | 94% | 96% | – |
| Cc1ccc(C=C2C(=O)OC(C)(C)C2=O)s1 [Compound 58] | 51% | 97% | 100% | – |
| CC1(C)OC(=O)C(=Cc2ccc(I)s2)C1=O [Compound 59, 3-[(5-iodo-2-thienyl)methylene]-5.5-dimethyl-2,4 (3H)furandione] | 1% | 37% | 94% | – |
| CC1(C)OC(=O)C(=Cc2ccc(Br)s2)C1=O [Compound 60] | 0% | 96% | 100% | – |
| CCOC(=O)c1ccc(C=C2C(=O)OC(C)(C)C2=O)s1 [Compound 61, 3-(5-carboxyethyl-2-thienyl)methylene1-5.5-dimethyl 11-2,4(3H)furandione] | 0% | 18% | 42% | – |
| Cc1ccsc1C=C1C(=O)OC(C)(C)C1=O [Compound 62, 3[(3-methyl-2-thienyl)methylene]-5,5dimethyl-2,4(3H,5H) furandione] | 6% | 99% | 100% | – |
| Cc1ccc(C=C2C(=O)CNC2=O)s1 [Compound 63, 3-[(5-methyl-2-thienyl)methylene] -2,4(3H.5H) pyrrolidinedione] | 0% | 0% | 0% | – |
| O=C1CNC(=O)C1=Cc1ccc(Br)s1 [Compound 64] | 0% | 0% | 0% | – |
| CCOC(=O)c1ccc(C=C2C(=O)CNC2=O)s1 [Compound 65] | 7% | 32% | 75% | – |
| Cc1ccsc1C=C1C(=O)CNC1=O [Compound 66, 3-(3-methyl-2-thienyl)methylene1-2,4(3H,5H) pyrrolidinedione] | 0% | 15% | 54% | – |
| Cc1ccc(C=CC=C2C(=O)CNC2=O)s1 [Compound 67, 3-[(5-methyl-2-thienyl)propylenediene]-2,4(3H,5H) pyrrolidinedione] | 0% | 0% | 94% | – |
| O=C1CNC(=O)C1=Cc1ccc(N2CCCCC2)s1 [Compound 68, 3-(5-N-piperdyl-2-thienyl)methylene1-2.4(3H.5H) pyrrolidinedione] | – | – | – | % Inhibition ([3]; 1.0 mcg/ml): 0%; % Inhibition ([3]; 5.0 mcg/ml): 0%; % Inhibition ([3]; 10.0 mcg/ml): 0% |
| Cc1ccc(C=C2C(=O)CSC2=O)s1 [Compound 69] | 13% | 41% | 100% | – |
| O=C1CSC(=O)C1=Cc1ccc(Br)s1 [Compound 70, 3-[(5-bromo-2-thienyl)methylene]-2.4(3H,5H)-1-thiophene dione] | 22% | 30% | 54% | – |
| CN(C)/N=N/c1[nH]cnc1C(N)=O [DTIC, DACARBAZINE] | – | – | – | percentage of growth (colonies vs control) (human tumor H5330 THYMUS; [5]): 59%; percentage of growth (colonies vs control) (human tumor H5330 THYMUS; [4]): 91% |
| CN(C)c1nc(N(C)C)nc(N(C)C)n1 [HXM, HEXAMETHYLMELAMINE] | – | – | – | percentage of growth (colonies vs control) (human tumor H5331 OVARY; [5]): 84%; percentage of growth (colonies vs control) (human tumor H5318 OVARY): 102% |
| N[C@@H](Cc1ccc(N(CCCl)CCCl)cc1)C(=O)O [MPL, MELPHALAN] | – | – | – | percentage of growth (colonies vs control) (human tumor H5337 COLON; [5]): 58%; percentage of growth (colonies vs control) (human tumor H5337 COLON; [4]): 76%; percentage of growth (colonies vs control) [1, 5]: 12%; percentage of growth (colonies vs control) (human tumor H5331 OVARY; [5]): 76%; percentage of growth (colonies vs control) [2, 5]: 61%; percentage of growth (colonies vs control) [2, 4]: 54%; percentage of growth (colonies vs control) (human tumor H5349 BREAST; [5]): 65%; percentage of growth (colonies vs control) (human tumor H5349 BREAST; [4]): 63%; percentage of growth (colonies vs control) (human tumor H5330 THYMUS; [5]): 92%; percentage of growth (colonies vs control) (human tumor H5330 THYMUS; [4]): 31%; percentage of growth (colonies vs control) (human tumor H5319 BREAST): 85% |
| COc1cc([C@@H]2c3cc4c(cc3[C@@H](O[C@@H]3O[C@@H]5CO[C@@H](C)O[C@H]5[C@H](O)[C@H]3O)[C@H]3COC(=O)[C@H]23)OCO4)cc(OC)c1O [VP16] | – | – | – | percentage of growth (colonies vs control) (human tumor H5330 THYMUS; [5]): 77% |
| ACTINOMYCEN D | – | – | – | percentage of growth (colonies vs control) [1, 5]: 22%; percentage of growth (colonies vs control) [1, 4]: 6% |

Source: patent publication US4996227A, “3-(heteroarylalkyene)- and 3-(arylalkylene)-2,4(3H,5H)-heterocyclic diones as cancer chemotherapy drugs” (priority 1989, dated 1991)
